Experimental findings from patent publication US11083732B2, “Use of negative modulators of GABA receptors containing alpha5 subunits as fast acting antidepressants” (University of Maryland, Baltimore, priority 2014, dated 2021) are described below.

In test [1] the test system is TA-CA1 synapses. The experiment in a line: Acute slice electrophysiology: fEPSPs at TA-CA1 synapses after in vivo injection. More on the design: species or system rat. As for the experimental part:
Acute slice electrophysiology. Standard methods were used to prepare 400-μm-thick transverse hippocampal slices. Dissection and recording saline contained: 124 mM NaCl, 3 mM KCl, 1.25 mM NaH2PO4, 1.5 mM MgSO4, 2.5 mM CaCl2, 26 mM NaHCO3, and 10 mM glucose, bubbled with 95% O2/5% CO2. Slices were then transferred to a submersion-type recording chamber and perfused at 0.5 2 ml/min at 20-22° C. Picrotoxin (100 μM) and CGP52432 (2 μM) were included to block GABAA and GABAB receptors, and the CA3 region was removed with a scalpel. Because TA-CA1 synapses are electrotonically remote from CA1 cell somata, extracellular recording of local field excitatory postsynaptic potentials (fEPSPs) was used. Recording pipettes (3-5 MSΩ) contained extracellular saline and were placed in stratum lacunosum-moleculare (SLM) to record TA-CA1 responses. fEPSPs were amplified 1000×, filtered at 3 kHz, and digitized at 10 kHz. Concentric bipolar tungsten electrodes were placed >500 μm from the […] in SLM for TA afferents. Stimuli (100 μs) were delivered at 0.05 Hz.
As in previous work (Kallarackal et al., 2013), Mg2+-free saline was used to produce a robust NMDAR-mediated component of the fEPSP for quantification of AMPAR-mediated synaptic excitation. 3-5 consecutive responses were averaged and fEPSP slope was calculated over a 1-3 ms window. […] For NMDA responses, DNQX (50 μM) was bath applied for 15 min and the slope was calculated over a 3-5 ms window in the rising phase of the response, 5-10 ms after its initiation. […]
The inventors used extracellular electrophysiological recording of fEPSPs at TA-CA1 synapses in SLM of area CA1 in brain slices prepared from unstressed rats, rats subjected to ten days of CRS and given a vehicle injection 24 hrs earlier, and rats subjected to ten days of CRS and given an L-655,708 injection 24 hrs earlier (0.7 mg/kg, i.p.). These were the same rats used for the behavioral analyses in FIG. 6. fEPSPs were recorded in ACSF lacking added Mg2+ so as to unblock NMDA receptors. […]

For test [2], the system named is GluA1. Briefly: Western blotting of GluA1 in SLM tissue of hippocampal area CA1. The test is classed as in vivo, rat. The text has this:
Western blotting. SLM tissue punches (1 mm diameter) were dissected from area CA1 in hippocampal slices and pooled (3-4 punches/sample). Membranes were probed with antibodies directed against GluA1 (Millipore Bioscience Research Reagents) and β-actin (Cell Signaling Technology). Levels of proteins are expressed as the ratio of intensity normalized to β-actin intensity, as done previously (Kallarackal et al., 2013).
SLM tissue was harvested from slices taken from unstressed rats, rats subjected to ten days of CRS and given a vehicle injection 24 hrs earlier, and rats subjected to ten days of CRS and given an injection of L-655,708 24 hrs earlier (0.7 mg/kg, i.p.). These were the same rats used for FIG. 6.
For orientation: A western blot detects proteins with antibodies after separation by electrophoresis.

The mark [3] stands for this setting: slices from rats after 10 days CRS, L-655,708 0.7 mg/kg i.p. 24 hrs earlier.

Molecules are shown by their SMILES. “Also recorded” adds a separate entry of the source.

As to `CCOC(=O)c1ncn2c1[C@@H]1CCCN1C(=O)c1cc(OC)ccc1-2` [L-655,708, ethyl (13aS)-7-methoxy-9-oxo-11, 12,13,13 a-terahydro-9H-imidazo[1,5-a]pyrrolo[2,1-c] [1,4]benzodiazepine-1-carboxylate], the “AMPA:NMDA ratio” value in test [1] (slices from CRS rats, L-655,708 24 hrs earlier, compared to vehicle-treated CRS animals) is “significantly higher”. In test [1] (setting [3]), the “AMPAR-mediated signaling at TA-CA1 synapses (slope of AMPAR component of fEPSP)” value was “reversed rapidly” and the “slope of the NMDA component of the fEPSP” value was “no corresponding difference”. The “phosphorylation of S831 of GluA1 in SLM” value in test [2] (CRS rats, 24 hours after injection) is “increased”. Further, in test [2] (CRS rats, L-655,708 24 hrs earlier), the “GluA1 protein level in SLM (normalized to β-actin)” value is on record as “not significantly different than levels in unstressed controls; also recorded: increased”. Moreover, the “phosphorylation of S831 and total GluA1 expression in SLM” value in test [2] (unstressed animals, 24 hours after injection) is reported as “no effect”.
